We go through 11 molecules from PubChem BioAssay (NCI).

Some test systems named below: HOP-92 NSCLC; SF-268 CNS; HL-60(TB) leukemia; K-562 leukemia; TK-10 renal; LOX IMVI melanoma; OVCAR-3 ovarian; UACC-257 melanoma; SF-539 CNS.
What all share (assay): DTP human tumour cell line panel, 48 h

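A five-concentration, 48-hour dose response in 96-well plates underlies each endpoint, interpolated linearly between surrounding concentrations. GI50 marks 50% less growth. TGI: total growth inhibition.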

A word on the GI50: it is the concentration that inhibits growth by half. The TGI is the concentration giving total growth inhibition. A high value points to less potent growth arrest.

For the molecule `CC(=O)c1ccc(NCn2nc(-c3ccccc3O)oc2=S)cc1`, the GI50 is 42.8 µM in the test on HOP-92 NSCLC; above 100 µM in the test on SF-268 CNS; above 100 µM with HL-60(TB) leukemia; above 100 µM in the test on K-562 leukemia; 67.1 µM in the test with TK-10 renal; 22.7 µM with LOX IMVI melanoma. The GI50 in the test with OVCAR-3 ovarian and in the test on UACC-257 melanoma was above 100 µM each time. Further, the TGI in the test on HOP-92 NSCLC is above 100 µM; in the test on SF-268 CNS it was above 100 µM; with HL-60(TB) leukemia, above 100 µM; in the test on K-562 leukemia, above 100 µM; in the test on TK-10 renal, above 100 µM; with LOX IMVI melanoma, 45.5 µM. In addition, the TGI in the test on OVCAR-3 ovarian and in the test on UACC-257 melanoma was above 100 µM in each case.
Regarding `O=c1cc(-c2ccccc2)oc2cc(OCc3cn(Cc4ccc(F)cc4)nn3)cc(O)c12`, the GI50 in the test with SF-539 CNS is 5.17 µM; in the test on HOP-92 NSCLC, 4.43 µM; in the test with SF-268 CNS, 4.32 µM; in the test on HL-60(TB) leukemia, above 100 µM; in the test with K-562 leukemia it was above 100 µM; in the test on TK-10 renal it was 10.4 µM. Moreover, the GI50 with LOX IMVI melanoma and in the test on UACC-257 melanoma was above 100 µM in each case. Also, the TGI in the test with SF-539 CNS is above 100 µM; in the test on HOP-92 NSCLC it was 45.5 µM; in the test with SF-268 CNS, above 100 µM; in the test with HL-60(TB) leukemia, above 100 µM; in the test with K-562 leukemia it was above 100 µM; in the test on TK-10 renal it was 28.6 µM. Moreover, the TGI in the test on LOX IMVI melanoma and with UACC-257 melanoma was above 100 µM each time.
Turning to `COc1cc([N+](=O)[O-])c(S(=O)(=O)O)cc1-n1nc(-c2ccccc2)n[n+]1-c1cc(S(=O)(=O)[O-])c([N+](=O)[O-])cc1OC`, the TGI in the test with SF-539 CNS, with SF-268 CNS, in the test with HL-60(TB) leukemia, with K-562 leukemia, in the test with LOX IMVI melanoma and with OVCAR-3 ovarian was above 100 µM each time. For the same molecule, in the test with UACC-257 melanoma, the TGI is above 100 µM.
For `CC(=O)OC1C(O)COC(Oc2c(C)c3c4c(c2O)[C@@H](C)CC[C@@H]4[C@@H](C)C[C@H]3C=C(C)C)C1O` (some centres undefined), the GI50 is 15.6 µM in the test with HOP-92 NSCLC; 12.9 µM in the test with SF-268 CNS; 10.3 µM with K-562 leukemia; 14.7 µM in the test on TK-10 renal; 18 µM in the test on LOX IMVI melanoma; 13.5 µM in the test on OVCAR-3 ovarian. Besides, the TGI with HOP-92 NSCLC came out at 32 µM; with SF-268 CNS, 32.7 µM; in the test with K-562 leukemia, 30.2 µM; in the test on TK-10 renal it was 29 µM; with LOX IMVI melanoma it was 35.4 µM; in the test with OVCAR-3 ovarian, 28.2 µM.
Regarding `COc1cc2c(c(OC)c1OC)C(=O)c1c-2n(CCCN)c(=O)c2cc([N+](=O)[O-])ccc12`, the GI50 in the test on SF-539 CNS was 0.55 µM; with SF-268 CNS, 0.364 µM; in the test with HL-60(TB) leukemia, 4.5 µM; in the test with K-562 leukemia, 2.86 µM; in the test on TK-10 renal, 0.616 µM; in the test with OVCAR-3 ovarian, 1.06 µM. For the same molecule, the GI50 in the test with UACC-257 melanoma is 5.18 µM. The TGI was 1.16 µM with SF-539 CNS; 1.95 µM with SF-268 CNS; 10.9 µM with HL-60(TB) leukemia; 7.98 µM in the test with K-562 leukemia; 1.3 µM with TK-10 renal; 2.4 µM in the test with OVCAR-3 ovarian. In addition, the TGI with UACC-257 melanoma was determined as 12.2 µM.
As for `CC(=O)OC1CC(C)c2c1ncnc2N1CCN(C(=O)OC(C)(C)C)CC1` (centres undefined), the GI50 with SF-539 CNS was 30.8 µM; in the test on HOP-92 NSCLC, 19.4 µM; with SF-268 CNS, 67.2 µM; with HL-60(TB) leukemia it was 25.9 µM; in the test with K-562 leukemia it was 37.8 µM; with TK-10 renal it was 70.8 µM. Further, the GI50 is 47.8 µM with LOX IMVI melanoma and 32.3 µM in the test on OVCAR-3 ovarian. Besides, the TGI was above 100 µM in the test with SF-539 CNS; 91.4 µM in the test on HOP-92 NSCLC; above 100 µM in the test with SF-268 CNS; 83.6 µM in the test on HL-60(TB) leukemia; above 100 µM in the test on K-562 leukemia; above 100 µM in the test on TK-10 renal. Further, the TGI was above 100 µM with LOX IMVI melanoma and 82.7 µM in the test on OVCAR-3 ovarian.
For the molecule `C#Cc1cccc(N2C(=O)CC(=P(c3ccccc3)(c3ccccc3)c3ccccc3)C2=O)c1`, the TGI is above 100 µM in the test on SF-268 CNS; 38.2 µM with HL-60(TB) leukemia; above 100 µM with K-562 leukemia; above 100 µM in the test with TK-10 renal; above 100 µM with OVCAR-3 ovarian; above 100 µM in the test with UACC-257 melanoma.
Regarding `CC(=O)C1C(=O)C(=O)N(c2ccc(Cl)cc2C)C1=O` (centres undefined), the TGI in the test with SF-539 CNS, in the test on HOP-92 NSCLC, with SF-268 CNS, in the test with HL-60(TB) leukemia, in the test on K-562 leukemia and in the test on TK-10 renal was above 100 µM throughout. The TGI in the test on UACC-257 melanoma is above 100 µM.
With `CNC1=C(Br)C(=O)C2=C(C1=O)C1C3=C(C(=O)C=CC3=O)C2c2ccccc21` (centres undefined), the GI50 with HOP-92 NSCLC is 1.91 µM; with SF-268 CNS, 2.97 µM; in the test on HL-60(TB) leukemia it was 2.18 µM; in the test on K-562 leukemia it was 2.65 µM; with TK-10 renal, 10.8 µM; in the test with LOX IMVI melanoma, 1.74 µM. Besides, the GI50 is 5.29 µM in the test with OVCAR-3 ovarian and 12.7 µM in the test with UACC-257 melanoma. Besides, the TGI is 4.19 µM in the test with HOP-92 NSCLC; above 29.4 µM in the test with SF-268 CNS; above 100 µM in the test on HL-60(TB) leukemia; above 23.7 µM with K-562 leukemia; 34.4 µM in the test with TK-10 renal; 4.42 µM in the test on LOX IMVI melanoma. In addition, the figures for the TGI in the test with OVCAR-3 ovarian and in the test on UACC-257 melanoma were 10.9 µM and above 100 µM, respectively.
Turning to `CN1C(=O)NC2(O)c3ccccc3C(=O)C12O` (centres undefined), the TGI with HOP-92 NSCLC, in the test with SF-268 CNS, in the test on HL-60(TB) leukemia, with K-562 leukemia, with TK-10 renal and in the test with LOX IMVI melanoma was above 100 µM throughout. For the same molecule, the TGI with OVCAR-3 ovarian and with UACC-257 melanoma was above 100 µM in each case.
Take `COc1cc2c3c(n(CCCn4cccn4)c(=O)c2cc1OC)-c1cc2c(cc1C3=O)OCO2`: the GI50 with SF-539 CNS was 0.56 µM; in the test on HOP-92 NSCLC, 1.34 µM; in the test with SF-268 CNS, 0.586 µM; in the test on K-562 leukemia, 3.51 µM; in the test on TK-10 renal, 35.1 µM; in the test on LOX IMVI melanoma, 0.728 µM. Further, the GI50 in the test on OVCAR-3 ovarian is 33.7 µM; in the test on UACC-257 melanoma, 9.92 µM. In addition, the TGI was 5.08 µM with SF-539 CNS; 18.6 µM with HOP-92 NSCLC; above 100 µM in the test with SF-268 CNS; above 100 µM in the test with K-562 leukemia; above 100 µM in the test on TK-10 renal; 11.1 µM in the test with LOX IMVI melanoma. Further, the TGI in the test on OVCAR-3 ovarian and with UACC-257 melanoma was above 100 µM in each case.
